Reference: patent US10906873B2, “Substituted cyclic amides as herbicides” (FMC Corporation, priority 2015, dated 2021)

Columns and labels:
Type in all cases: in vivo
[1] = system: barnyardgrass (Echinochloa crus-galli); test: Test A preemergence, barnyardgrass; settings: 0 to 100 scale
Procedure, shortened: (§1)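 Visual injury ratings, 0 = no effect to 100 = complete control, made versus untreated controls after about 10 d in greenhouse. Chemicals formulated in solvent mixture containing surfactant were sprayed on loam-sand soil after seeding (preemergence) or onto plants at one- to two-leaf stage, 2-10 cm (postemergence).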

[2] = system: crabgrass (large crabgrass, Digitaria sanguinalis); test: Test A preemergence, crabgrass; settings: 1000 g ai/ha, 0 to 100 scale
Text: (§2) Seeds of plant species selected from barnyardgrass (Echinochloa crus-galli), crabgrass (large crabgrass, Digitaria sanguinalis), kochia (Kochia scoparia), ragweed (common ragweed, Ambrosia elatior), morningglory (Ipomoea spp.), velvetleaf (Abutilon theophrasti), ryegrass, It. (Italian ryegrass, Lolium multiflorum), foxtail, giant (giant foxtail, Setaria faberii), wheat (Triticum aestivum), corn (Zea mays), and pigweed (Amaranthus retroflexus), were planted into a blend of loam soil and sand and treated preemergence with a directed soil spray using test chemicals formulated in a non-phytotoxic solvent mixture which included a surfactant. At the same time, plants selected from these crop and weed species and also blackgrass (Alopecurus myosuroides), and galium (catchweed bedstraw, Galium aparine), were planted in pots containing the same blend of loam soil and sand and treated with postemergence applications of test chemicals formulated in the same manner. Plants ranged in height from 2 to 10 cm and were in the one- to two-leaf stage for the postemergence treatment. Treated plants and untreated controls were maintained in a greenhouse for approximately 10 d, after which time all treated plants were compared to untreated controls and visually evaluated for injury. Plant response ratings, summarized in Table A, are based on a 0 to 100 scale where 0 is no effect and 100 is complete control. A dash (-) response means no test result.

[3] = system: morningglory (Ipomoea spp.); test: Test A preemergence, morningglory; settings: 1000 g ai/ha, 0 to 100 scale
Text: as §2

[4] = system: velvetleaf (Abutilon theophrasti); test: Test A preemergence, velvetleaf; settings: 1000 g ai/ha, 0 to 100 scale
Text: as §2

[5] = system: foxtail, giant (giant foxtail, Setaria faberii); test: Test A preemergence, foxtail, giant; settings: 0 to 100 scale
Procedure, shortened: as §1

[6] = system: wheat (Triticum aestivum); test: Test A preemergence, wheat; settings: 1000 g ai/ha, 0 to 100 scale
Text: as §2

corn (Zea mays) [7] = test: Test A preemergence, corn; settings: 1000 g ai/ha, 0 to 100 scale
Text: as §2

[8] = system: pigweed (Amaranthus retroflexus); test: Test A preemergence, pigweed; settings: 0 to 100 scale
Procedure, shortened: as §1

[9] = system: barnyardgrass (Echinochloa crus-galli); test: Test A postemergence, barnyardgrass
Procedure, shortened: as §1

[10] = system: crabgrass (large crabgrass, Digitaria sanguinalis); test: Test A postemergence, crabgrass; settings: 1000 g ai/ha, 0 to 100 scale
Text: as §2

[11] = system: morningglory (Ipomoea spp.); test: Test A postemergence, morningglory; settings: 1000 g ai/ha, 0 to 100 scale
Text: as §2

[12] = system: velvetleaf (Abutilon theophrasti); test: Test A postemergence, velvetleaf; settings: 1000 g ai/ha, 0 to 100 scale
Text: as §2

[13] = system: foxtail, giant (giant foxtail, Setaria faberii); test: Test A postemergence, foxtail, giant; settings: 0 to 100 scale
Procedure, shortened: as §1

[14] = system: wheat (Triticum aestivum); test: Test A postemergence, wheat; settings: 0 to 100 scale
Procedure, shortened: as §1

corn (Zea mays) [15] = test: Test A postemergence, corn; settings: 0 to 100 scale
Procedure, shortened: as §1

[16] = system: pigweed (Amaranthus retroflexus); test: Test A postemergence, pigweed; settings: 0 to 100 scale
Procedure, shortened: as §1

[17] = system: barnyardgrass (Echinochloa crus-galli); test: Test B flooded paddy test, barnyardgrass; settings: Flood, 250 g ai/ha; scale of 0 to 100 where 0 is no effect and 100 is complete control; 13 to 15 d
Procedure, shortened: (§3)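 Ratings use a 0-100 visual scale, where 100 is complete control, and compare treated plants with controls after 13 to 15 d of greenhouse growth. Compound went straight into paddy water kept 3 cm over the soil surface, applied to seedlings at the 2-leaf stage.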

[18] = system: ducksalad (Heteranthera limosa); test: Test B flooded paddy test, ducksalad; settings: Flood, 250 g ai/ha; scale of 0 to 100 where 0 is no effect and 100 is complete control; 13 to 15 d
Procedure, shortened: as §3

rice (Oryza sativa) = test: Test B flooded paddy test, rice; settings: Flood, 250 g ai/ha; scale of 0 to 100 where 0 is no effect and 100 is complete control; 13 to 15 d
Procedure, shortened: as §3

[19] = system: sedge, umbrella (small-flower umbrella sedge, Cyperus difformis); test: Test B flooded paddy test, sedge, umbrella; settings: Flood, 250 g ai/ha; scale of 0 to 100 where 0 is no effect and 100 is complete control; 13 to 15 d
Procedure, shortened: as §3

kochia (Kochia scoparia) [20] = test: Test A preemergence, kochia; settings: 0 to 100 scale
Procedure, shortened: as §1

[21] = system: ragweed (common ragweed, Ambrosia elatior); test: Test A preemergence, ragweed; settings: 0 to 100 scale
Procedure, shortened: as §1

[22] = system: ryegrass, It. (Italian ryegrass, Lolium multiflorum); test: Test A preemergence, ryegrass, It.; settings: 0 to 100 scale
Procedure, shortened: as §1

kochia (Kochia scoparia) [23] = test: Test A postemergence, kochia; settings: 0 to 100 scale
Procedure, shortened: as §1

[24] = system: ragweed (common ragweed, Ambrosia elatior); test: Test A postemergence, ragweed; settings: 0 to 100 scale
Procedure, shortened: as §1

[25] = system: ryegrass, It. (Italian ryegrass, Lolium multiflorum); test: Test A postemergence, ryegrass, It.; settings: 0 to 100 scale
Procedure, shortened: as §1

[26] = system: blackgrass (Alopecurus myosuroides); test: Test A postemergence, blackgrass; settings: 0 to 100 scale
Procedure, shortened: as §1

[27] = system: galium (catchweed bedstraw, Galium aparine); test: Test A postemergence, galium; settings: 0 to 100 scale
Procedure, shortened: as §1

O=C1NCC(Cc2ccc(F)cc2)C1C(=O)Nc1cccc(F)c1F (centres unmarked) [Compound 13, N-(2,3-difluorophenyl)-4-[(4-fluorophenyl)methyl]-2-oxo-3-pyrrolidinecarboxamide]
80: Plant response rating, Barnyardgrass ([1]; 1000 g ai/ha) | Plant response rating, Crabgrass [2] | Plant response rating, Barnyardgrass ([9]; 1000 g ai/ha, 0 to 100 scale (0 no effect, 100 complete control)) | Plant response rating, Crabgrass [10]
0: Plant response rating, Morningglory [3] | Plant response rating, Velvetleaf [4] | Plant response rating, Wheat [6] | Plant response rating, Corn (corn (Zea mays) [7]) | Plant response rating, Pigweed ([8]; 1000 g ai/ha) | Plant response rating, Morningglory [11] | Plant response rating, Velvetleaf [12] | Plant response rating, Wheat ([14]; 1000 g ai/ha) | Plant response rating, Corn (corn (Zea mays) [15]; 1000 g ai/ha) | Plant response rating, Pigweed ([16]; 1000 g ai/ha) | Plant response rating, Barnyardgrass [17] | Plant response rating, Ducksalad [18] | Plant response rating, Rice (rice (Oryza sativa)) | Plant response rating, Sedge, Umbrella [19]
60: Plant response rating, Foxtail, Giant ([5]; 1000 g ai/ha) | Plant response rating, Foxtail, Giant ([13]; 1000 g ai/ha)

O=C1NCC(CCc2ccccc2)C1C(=O)Nc1cccc(F)c1F (centres unmarked) [Compound 35, N-(2,3-difluorophenyl)-2-oxo-4-(2-phenylethyl)-3-pyrrolidinecarboxamide]
50: Plant response rating, Kochia (kochia (Kochia scoparia) [20]; 500 g ai/ha)
60: Plant response rating, Foxtail, Giant ([5]; 500 g ai/ha)
0: Plant response rating, Barnyardgrass ([1]; 125 g ai/ha) | Plant response rating, Kochia (kochia (Kochia scoparia) [20]; 125 g ai/ha) | Plant response rating, Ragweed ([21]; 125 g ai/ha) | Plant response rating, Ragweed ([21]; 500 g ai/ha) | Plant response rating, Ryegrass, It. ([22]; 125 g ai/ha) | Plant response rating, Ryegrass, It. ([22]; 500 g ai/ha) | Plant response rating, Foxtail, Giant ([5]; 125 g ai/ha) | Plant response rating, Pigweed ([8]; 125 g ai/ha) | Plant response rating, Pigweed ([8]; 500 g ai/ha) | Plant response rating, Barnyardgrass ([9]; 125 g ai/ha, 0 to 100 scale) | Plant response rating, Kochia (kochia (Kochia scoparia) [23]; 125 g ai/ha) | Plant response rating, Kochia (kochia (Kochia scoparia) [23]; 500 g ai/ha) | Plant response rating, Ragweed ([24]; 125 g ai/ha) | Plant response rating, Ragweed ([24]; 500 g ai/ha) | Plant response rating, Ryegrass, It. ([25]; 125 g ai/ha) | Plant response rating, Ryegrass, It. ([25]; 500 g ai/ha) | Plant response rating, Foxtail, Giant ([13]; 125 g ai/ha) | Plant response rating, Wheat ([14]; 125 g ai/ha) | Plant response rating, Wheat ([14]; 500 g ai/ha) | Plant response rating, Corn (corn (Zea mays) [15]; 125 g ai/ha) | Plant response rating, Corn (corn (Zea mays) [15]; 500 g ai/ha) | Plant response rating, Pigweed ([16]; 125 g ai/ha) | Plant response rating, Pigweed ([16]; 500 g ai/ha) | Plant response rating, Blackgrass ([26]; 125 g ai/ha) | Plant response rating, Blackgrass ([26]; 500 g ai/ha) | Plant response rating, Galium ([27]; 125 g ai/ha) | Plant response rating, Galium ([27]; 500 g ai/ha) | Plant response rating, Barnyardgrass [17] | Plant response rating, Rice (rice (Oryza sativa)) | Plant response rating, Sedge, Umbrella [19]
30: Plant response rating, Barnyardgrass ([1]; 500 g ai/ha) | Plant response rating, Barnyardgrass ([9]; 500 g ai/ha, 0 to 100 scale) | Plant response rating, Foxtail, Giant ([13]; 500 g ai/ha)
70: Plant response rating, Ducksalad [18]

O=C1NCC(/C=C/c2ccccc2)C1C(=O)Nc1cccc(F)c1F (centres unmarked) [Compound 33, N-(2,3-difluorophenyl)-2-oxo-4-[(1E)-2-phenylethenyl]-3-pyrrolidinecarboxamide]
0: Plant response rating, Kochia (kochia (Kochia scoparia) [20]; 125 g ai/ha) | Plant response rating, Ragweed ([21]; 125 g ai/ha) | Plant response rating, Ragweed ([21]; 500 g ai/ha) | Plant response rating, Ryegrass, It. ([22]; 125 g ai/ha) | Plant response rating, Ryegrass, It. ([22]; 500 g ai/ha) | Plant response rating, Pigweed ([8]; 125 g ai/ha) | Plant response rating, Pigweed ([8]; 500 g ai/ha) | Plant response rating, Kochia (kochia (Kochia scoparia) [23]; 125 g ai/ha) | Plant response rating, Kochia (kochia (Kochia scoparia) [23]; 500 g ai/ha) | Plant response rating, Ryegrass, It. ([25]; 125 g ai/ha) | Plant response rating, Ryegrass, It. ([25]; 500 g ai/ha) | Plant response rating, Wheat ([14]; 125 g ai/ha) | Plant response rating, Wheat ([14]; 500 g ai/ha) | Plant response rating, Corn (corn (Zea mays) [15]; 125 g ai/ha) | Plant response rating, Corn (corn (Zea mays) [15]; 500 g ai/ha) | Plant response rating, Pigweed ([16]; 125 g ai/ha) | Plant response rating, Pigweed ([16]; 500 g ai/ha) | Plant response rating, Blackgrass ([26]; 125 g ai/ha) | Plant response rating, Blackgrass ([26]; 500 g ai/ha) | Plant response rating, Galium ([27]; 125 g ai/ha) | Plant response rating, Galium ([27]; 500 g ai/ha) | Plant response rating, Rice (rice (Oryza sativa)) | Plant response rating, Sedge, Umbrella [19]
50: Plant response rating, Barnyardgrass ([1]; 125 g ai/ha) | Plant response rating, Foxtail, Giant ([5]; 125 g ai/ha) | Plant response rating, Barnyardgrass ([9]; 125 g ai/ha, 0 to 100 scale)
70: Plant response rating, Foxtail, Giant ([13]; 125 g ai/ha) | Plant response rating, Foxtail, Giant ([13]; 500 g ai/ha)
10: Plant response rating, Ragweed ([24]; 125 g ai/ha) | Plant response rating, Ragweed ([24]; 500 g ai/ha)
40: Plant response rating, Barnyardgrass [17]
20: Plant response rating, Kochia (kochia (Kochia scoparia) [20]; 500 g ai/ha)
95: Plant response rating, Ducksalad [18]
90: Plant response rating, Barnyardgrass ([1]; 500 g ai/ha) | Plant response rating, Foxtail, Giant ([5]; 500 g ai/ha) | Plant response rating, Barnyardgrass ([9]; 500 g ai/ha, 0 to 100 scale)
